From patent publication US20250049035A1, “MICROBIOCIDAL BICYCLE HETEROCYCLIC DERIVATIVES” (SYNGENTA CROP PROTECTION AG, priority 2021, published 2025)

Assays:
[1] = system: Monographella nivalis (Microdochium nivale); experiment: Monographella nivalis (Microdochium nivale) / liquid culture (foot rot cereals); assay type: cell-based; settings: liquid culture (potato dextrose broth), growth inhibition photometrically 4-5 days after application, compared to untreated control
How it was run: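 Cryostored conidia suspended in potato dextrose broth and added to compound dispensed from DMSO solution. Growth at 24 °C; inhibition read photometrically 4–5 days after application.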

[2] = system: Mycosphaerella arachidis (Cercospora arachidicola); experiment: Mycosphaerella arachidis (Cercospora arachidicola) / liquid culture (early leaf spot); assay type: cell-based; settings: liquid culture (potato dextrose broth), growth inhibition photometrically 4-5 days after application, compared to untreated control
How it was run: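 Cryostored conidia mixed into potato dextrose broth and added to compound dispensed in DMSO. Plates held at 24 °C; growth inhibition assessed photometrically 4–5 days after application.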

[3] = system: Thanatephorus cucumeris (Rhizoctonia solani); experiment: Thanatephorus cucumeris (Rhizoctonia solani) / liquid culture (foot rot, damping-off); assay type: cell-based; settings: 20 ppm; liquid culture (potato dextrose broth), growth inhibition photometrically 3-4 days after application; compared to untreated control
Method: Example B13: Thanatephorus cucumeris (Rhizoctonia solani)/Liquid Culture (Foot Rot, Damping-Off) Mycelia fragments of a newly grown liquid culture of the fungus are directly mixed into a nutrient broth (potato dextrose broth). After placing a DMSO solution of the test compounds into a microtiter plate (96-well format), the nutrient broth containing the fungal material is added. The test plates are incubated at 24° C. and the inhibition of growth is determined photometrically 3-4 days after application.

[4] = system: Mycosphaerella graminicola (Septoria tritici); experiment: Mycosphaerella graminicola (Septoria tritici) / liquid culture (Septoria blotch); assay type: cell-based; settings: Zymoseptoria tritici, liquid culture (potato dextrose broth), growth inhibition photometrically 4-5 days after application, compared to untreated control
How it was run: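 Cryostored conidia in potato dextrose broth added to compound in DMSO, incubated at 24 °C. Growth inhibition read photometrically 4–5 days after application.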

[5] = system: Alternaria solani; experiment: Alternaria solani / tomato / leaf disc (early blight); assay type: in vivo; settings: foliar, tomato leaf disks cv. Baby, inoculated 2 days after application, assessed 5-7 days after application, compared to untreated control
Method: Example B1: Alternaria solani/Tomato/Leaf Disc (Early Blight) Tomato leaf disks cv. Baby are placed on agar in multiwell plates (24-well format) and sprayed with the formulated test compound diluted in water. The leaf disks are inoculated with a spore suspension of the fungus 2 days after application. The inoculated leaf disks are incubated at 23° C./21° C.

[6] = system: Botryotinia fuckeliana (Botrytis cinerea); experiment: Botryotinia fuckeliana (Botrytis cinerea) / liquid culture (gray mould); assay type: cell-based; settings: liquid culture (Vogels broth), growth inhibition photometrically 3-4 days after application, compared to untreated control
How it was run: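 Conidia from cryogenic storage, suspended in Vogels nutrient broth, added to compound applied as a DMSO solution. Incubation at 24 °C; growth inhibition read photometrically 3–4 days after application.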

[7] = system: Glomerella lagenarium (Colletotrichum lagenarium); experiment: Glomerella lagenarium (Colletotrichum lagenarium) / liquid culture (anthracnose); assay type: cell-based; settings: Colletotrichum orbiculare, liquid culture (potato dextrose broth), growth inhibition photometrically 3-4 days after application, compared to untreated control
How it was run: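 Cryostored conidia in potato dextrose broth were added to wells holding compound in DMSO and incubated at 24° C. Growth inhibition read photometrically 3-4 days after application.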

[8] = system: Blumeria graminis f. sp. tritici (Erysiphe graminis f. sp. tritici); experiment: Blumeria graminis f. sp. tritici / wheat / leaf disc preventative (powdery mildew); assay type: in vivo; settings: foliar, wheat leaf segments cv. Kanzler, inoculated 1 day after application, assessed 6-8 days after application, compared to untreated control
Method: Example B4: Blumeria graminis f. sp. tritici (Erysiphe graminis f. sp. tritici)/Wheat/Leaf Disc Preventative (Powdery Mildew on Wheat) Wheat leaf segments cv. Kanzler are placed on agar in a multiwell plate (24-well format) and sprayed with the formulated test compound diluted in water. The leaf disks are inoculated by shaking powdery mildew infected plants above the test plates 1 day after application. The inoculated leaf disks are incubated at 20° C. and 60% relative humidity under a light regime of 24 h darkness followed by 12 h light/12 h darkness in a climate chamber and the activity of a compound is assessed as percent disease control compared to untreated when an appropriate level of disease damage appears on untreated check leaf segments (6-8 days after application).

[9] = system: Fusarium culmorum; experiment: microbe, parasite or virus in culture; assay type: cell-based; settings: read-out: control of Fusarium culmorum
[10] = system: Phaeosphaeria nodorum (Septoria nodorum); experiment: Phaeosphaeria nodorum (Septoria nodorum) / wheat / leaf disc preventative (glume blotch); assay type: in vivo; settings: Parastagonospora nodorum, foliar, wheat leaf segments cv. Kanzler, inoculated 2 days after application, assessed 5-7 days after application, compared to untreated control
How it was run: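 Wheat leaf segments (cv. Kanzler) on agar were sprayed with diluted formulated compound and inoculated with fungal spores 2 days later. Incubation was at 20 °C, 75% relative humidity and 12 h light/dark. Percent disease control versus untreated leaf disks was scored 5-7 days after application.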

[11] = system: Pyrenophora teres; experiment: Pyrenophora teres / barley / leaf disc preventative (net blotch); assay type: in vivo; settings: foliar, barley leaf segments cv. Hasso, inoculated 2 days after application, assessed 5-7 days after application, compared to untreated control
How it was run: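 Leaf segments of barley cv. Hasso on agar sprayed with water-diluted formulated compound, then inoculated with spores 2 days later. Incubation at 20 °C, 65% RH, 12 h light/12 h dark.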

[12] = system: Sclerotinia sclerotiorum; experiment: Sclerotinia sclerotiorum / liquid culture (cottony rot); assay type: cell-based; settings: liquid culture (potato dextrose broth), growth inhibition photometrically 3-4 days after application, compared to untreated control
Method: Example B14: Sclerotinia sclerotiorum/Liquid Culture (Cottony Rot) Mycelia fragments of a newly grown liquid culture of the fungus are directly mixed into a nutrient broth (potato dextrose broth). After placing a DMSO solution of test compound into a microtiter plate (96-well format) the nutrient broth containing the fungal material is added. The test plates are incubated at 24° C. and the inhibition of growth is determined photometrically 3-4 days after application.

SMILES | inhibition of growth at 20 ppm [1] | inhibition of growth at 20 ppm [2] | control of Thanatephorus cucumeris [3] | inhibition of growth at 20 ppm [4] | pest or weed control at 200 ppm [5] | inhibition of growth at 20 ppm [6] | inhibition of growth at 20 ppm [7] | pest or weed control at 200 ppm [8] | inhibition of growth at 20 ppm [9] | pest or weed control at 200 ppm [10] | pest or weed control at 200 ppm [11] | inhibition of growth at 20 ppm [12]
C[C@@H]1c2ccsc2[C@@](C)(c2cnn(C)c2)CN1C(=O)c1nnc(-c2ccc(F)cc2F)s1 (racemic) [Compound P-9, [5-(2,4-difluorophenyl)-1,3,4-thiadiazol-2-yl]-[rac-(4S,7R)-4,7-dimethyl-7-(1-methylpyrazol-4-yl)-4,6-dihydrothieno[3,2-c]pyridin-5-yl]methanone] | ≥ 80% | ≥ 80% | at least 80% | ≥ 80% |  |  |  |  |  |  |  | 
C[C@H]1c2sccc2[C@@](C)(c2cnn(C)c2)CN1C(=O)c1nnc(-c2ccc(F)cc2F)s1 [Compound P-6, [5-(2,4-difluorophenyl)-1,3,4-thiadiazol-2-yl]-[(4R,7S)-4,7-dimethyl-4-(1-methylpyrazol-4-yl)-5,7-dihydrothieno[2,3-c]pyridin-6-yl]methanone] | ≥ 80% | ≥ 80% |  | ≥ 80% | ≥ 80% | ≥ 80% | ≥ 80% | ≥ 80% | ≥ 80% | ≥ 80% | ≥ 80% | ≥ 80%
Cc1c(C2CN(C(=O)c3cc(-c4ccc(F)cc4F)on3)Cc3sccc32)cnn1C (stereo not shown) [Compound P-32, [5-(2,4-difluorophenyl)isoxazol-3-yl]-[4-(1,5-dimethylpyrazol-4-yl)-5,7-dihydro-4H-thieno[2,3-c]pyridin-6-yl]methanone] | ≥ 80% | ≥ 80% |  | ≥ 80% | ≥ 80% | ≥ 80% | ≥ 80% | ≥ 80% | ≥ 80% | ≥ 80% | ≥ 80% | ≥ 80%
Cc1c(C2CN(C(=O)c3cc(-c4ccc(F)cc4F)on3)Cc3ccsc32)cnn1C (stereo not shown) [Compound P-33, [5-(2,4-difluorophenyl)isoxazol-3-yl]-[7-(1,5-dimethylpyrazol-4-yl)-6,7-dihydro-4H-thieno[3,2-c]pyridin-5-yl]methanone] | ≥ 80% | ≥ 80% |  | ≥ 80% | ≥ 80% | ≥ 80% | ≥ 80% | ≥ 80% | ≥ 80% | ≥ 80% | ≥ 80% | ≥ 80%
